The text below walks through data of ChEMBL document CHEMBL2163295, “Uvaridacols E-H, highly oxygenated antiausterity agents from Uvaria dac” (2012).

The structures appear in SMILES notation. Where only a bound is given, the exact number is not on record here.

For assay [1], the system named is PANC-1. Briefly: Cytotoxicity against human PANC1 cells grown in nutrient-deprived medium after 24 hrs by WST8 assay. It counts as functional. (In general: Formazan colour is commonly taken as a measure of viable cells.)
Assay [2] concerns PANC-1. Kind of assay: Cytotoxicity against human PANC1 cells grown in DMEM medium after 24 hrs by WST8 assay. It counts as functional.

In the case of `Nc1ccn([C@@H]2O[C@H](CO)[C@@H](O)C2(F)F)c(=O)n1` [GEMCITABINE], the PC50 in assay [1] and in assay [2] was above 200 µM in each case.

In the case of `O=C(OC[C@]1(O)C=C[C@H](O)[C@@H](OC(=O)c2ccccc2)[C@@H]1O)c1ccccc1` [UVARIDACOL E], the PC50 in assay [1] was determined as 135 µM.

For the compound `CC(=O)O[C@@H]1[C@@H](OC(=O)c2ccccc2)[C@@H](O)C=C[C@]1(O)COC(=O)c1ccccc1` [UVARIDACOL F], the PC50 in assay [1] turned out to be 124 µM.

The compound `COc1cc(C[C@H]2C(=O)OC[C@@H]2Cc2ccc(OC)c(OC)c2)ccc1O` [ARCTIGENIN] gave a PC50 in assay [1] of 1 µM.

`CC(=O)O[C@@H]1[C@@H](O)[C@H](OC(=O)c2ccccc2)C=C[C@@]1(O)COC(=O)c1ccccc1` [UVARIDACOL H] displayed a PC50 in assay [1] of 156 µM.

Turning to `O=c1[nH]cc(F)c(=O)[nH]1` [FLUOROURACIL], the PC50 in assay [1] and in assay [2] was above 200 µM throughout.

`O=C(OC[C@]1(O)C=C[C@@H](O)[C@H](O)[C@H]1OC(=O)c1ccccc1)c1ccccc1` [UVARIDACOL G] displayed a PC50 in assay [1] above 200 µM.
